Measurements: patent publication US20120028897A1, “METHODS AND COMPOSITIONS FOR THE TREATMENT OF FLUID RETENTION DISORDERS” (priority 2008, published 2012)

Assays:
[1] = Urinary excretion and isomer identity after iv infusion (T84 bioassay and LC-MS of urine); assay type: in vivo, rat; settings: for stability of identity and properties in vivo: infused rats; for GC-C stimulating activity recovered in urine: T84 bioassay
Protocol: FIG. 3A is a graph showing urinary excretion of “UgnA like” activity as a function of time in animals treated with the either huUgnA (filled symbols) or huUgnB (open symbols). huUgn was infused into an anesthetized rat during the period indicated by the horizontal bar. […] A sample of the urine acquired during each clearance period was evaluated for activity in the T84 cell bioassay. The resulting cyclic GMP responses were then converted to apparent recoveries of “UgnA-like” peptide by interpolation on a huUgnA standard curve (constructed as in FIG. 1A). Appropriate dilutions were chosen to ensure that the activity in each sample would not saturate this assay.
After post-surgical equilibration (−60 min) and three 20 min control clearance periods, huUgnA or B was infused into the jugular vein at 10 μl/min over a 60 min period, followed by a return to isotonic saline for the remainder of the experiment. The infused doses of huUgnA were 12, 25, 50, 100, or 200 nmol/kg BW in a total of 38 rats; huUgnB doses were 9, 18, 35, 70, and 140 nmol/kg BW in 35 rats. A UgnA mimetic, E. coli STh (ST-core), was infused into a third group of 32 rats at doses of 17, 32, 66, 133, and 266 nmol/kg. Renal excretory responses to these infusions were slow to develop and long lasting, so clearance periods were continued for 2-3 hr after the termination of the peptide infusion. This protracted time course limited protocols to one dose of one peptide in each rat. A control group of 10 rats received isotonic saline at 10 μl/min in place of the peptide infusion, but was otherwise treated in the same way as the experimental groups.
(§1) HPLC analysis and mass spectroscopy of Ugn isomers. The integrity and purity of huUgnA and B isomer preparations were confirmed by liquid chromatography/mass spectroscopy (LC-MS) analysis. The two Ugn isomers have different retention times on a reverse phase HPLC column (FIG. 1, dashed trace; huUgnA elutes ˜0.35 minutes before huUgnB). Separations were performed on a Hypersil Gold AQ 2.1×50 mm column from Thermo Fisher Scientific Inc (Waltham, Mass.) equilibrated in 98% buffer A (0.1% formic acid), 2% buffer B (85:10:5 Acetonitrile/Isopropyl Alcohol/5 mM NH4OAc pH 5.8) with a flow rate of 0.4 ml/min on an Acquity HPLC system. After a 2.5 minute wash with the same buffers, peptides were eluted with a linear gradient of 2% buffer B to 80% buffer B over 25 minutes and held for one minute before an increase to 90% B over 2 minutes to wash the column, followed by a return to 2% buffer B over 3 minutes.
Peptide masses were determined using a Micromass Q-T of II instrument equipped with an electrospray ionization (ESI) source operating in positive ion mode. The instrument was programmed to scan in the mass range of m/z 100 to 1800. Molecular weight predictions and data analysis were carried out with MassLynx version 4.0 software. […] were injected directly without any sample preparation using an Acquity HPLC system connected in line with the Q-T of II.
Bioassay of huUgnA-like activity. The concentration of huUgnA-like bioactivity in infused peptide solutions and in urine collected during experiments was measured using a T84 cell-based bioassay, as described previously. T84 cells are a colon carcinoma cell line that increases cyclic GMP production in response to GC-C receptor agonists such as Ugn, Gn and ST core peptide. T84 cells were grown to near confluence in 12 well culture clusters, and then incubated with unknowns or standard concentrations of huUgnA. Standards or urine samples were diluted into bioassay medium (1 mM 3-isobutyl-1-methylxanthine, 0.03 mM phenol red, 137 mM NaCl, 5.4 mM KCl, 0.25 mM Na2HPO4, 0.44 mM KH2PO4, 1.3 mM CaCl2, 1.0 mM MgSO4, 4.2 mM NaHCO3, 10 mM HEPES buffered at pH 7.0) and the pH was adjusted to 7.0, if required, using the phenol red indicator dye as a guide. This pH adjustment was necessary, as it is well-established that the response of T84 cells to UGn is highly pH dependent. […]

[2] = Interconversion of huUgn A and B isomers in vitro (storage at −80° C.; pH 4, 50° C.); assay type: physicochemical; settings: LC-MS at periodic intervals
Protocol: FIG. 2C is a graph showing the amount of “UgnA like” activity as a function of time in cells treated with either huUgnA and huUgnB. The A and B isomers (filled and open circles, respectively) interconvert slowly in vitro. Peptides were incubated at 50° C. in 1 mM citrate buffer (pH 4) for either 0, 24, or 48 hr. Samples were then diluted into bioassay medium, the pH was adjusted to 7.0, and activity was measured in the T84 cell bioassay. A huUgnA standard curve was generated in the same assay, and cyclic GMP responses were converted to recoveries of “UgnA-like” peptide by interpolation on this standard curve.
as §1, with “After a 2.5 minute wash with the same buffers, peptides were eluted with a linear gradient of 2% buffer B to 80% buffer B over 25 minutes and held for one minute before an increase to 90% B over 2 minutes to wash the column, followed by a return to 2% buffer B over 3 minutes.” left out

SMILES	stability of identity and properties in vivo [1]	isomerization in vivo, LC-MS of urine at peak peptide excretion ([1]; iv infusion, anesthetized rat)	return of urinary GC-C stimulating activity to baseline after infusion was terminated ([1]; iv infusion, anesthetized rat)	time to appearance of GC-C stimulating activity in urine from start of infusion ([1]; iv infusion, anesthetized rat)	GC-C stimulating activity recovered in urine ([1]; iv infusion, anesthetized rat)	conversion from one isoform to the other during storage [2]
CC(C)C[C@H](NC(=O)[C@@H]1CSSC[C@@H]2NC(=O)[C@H](CC(C)C)NC(=O)[C@H](CCC(=O)O)NC(=O)[C@@H](NC(=O)[C@H](CC(=O)O)NC(=O)[C@H](CC(=O)O)NC(=O)[C@@H](N)CC(N)=O)CSSC[C@H](NC(=O)[C@H](C)NC(=O)[C@H](C(C)C)NC(=O)[C@H](CC(N)=O)NC(=O)[C@H](C(C)C)NC2=O)C(=O)N[C@@H]([C@@H](C)O)C(=O)NCC(=O)N1)C(=O)O (single isomer, unassigned) [huUgnA, Asn Asp Asp Cys Glu Leu Cys Val Asn Val Ala Cys Thr Gly Cys Leu, reference compound]	sufficiently stable for use in acute animal studies	essentially no isomerization had occurred	within an hour	≤ 20 min	a significant amount	did not occur
CC(C)C[C@H](NC(=O)[C@@H]1CSSC[C@@H]2NC(=O)[C@H](CC(C)C)NC(=O)[C@H](CCC(=O)O)NC(=O)[C@@H](NC(=O)[C@H](CC(=O)O)NC(=O)[C@H](CC(=O)O)NC(=O)[C@@H](N)CC(N)=O)CSSC[C@H](NC(=O)[C@H](C)NC(=O)[C@H](C(C)C)NC(=O)[C@H](CC(N)=O)NC(=O)[C@H](C(C)C)NC2=O)C(=O)N[C@@H]([C@@H](C)O)C(=O)NCC(=O)N1)C(=O)O (single isomer, unassigned) [huUgnB, Asn Asp Asp Cys Glu Leu Cys Val Asn Val Ala Cys Thr Gly Cys Leu]	sufficiently stable for use in acute animal studies	a clearly discernable huUgnB signal along with a barely detectible huUgnA signal			very little	did not occur
